Laboratory results published in ChEMBL document CHEMBL1146703, “Mannopeptimycin esters and carbonates, potent antibiotic agents against drug-resistant bacteria” (2004).
Values after ≈ are worked out from the molar mass of the structure shown.

Key:
Enterococcus faecalis [1] = assay: Antibacterial activity against Enterococcus faecalis; Range is 1-2; format: functional
Escherichia coli = assay: Antibacterial activity against Escherichia coli at </=64 ug/mL; No activity; format: functional, organism-based
Mus musculus = assay: Antibacterial activity against Staphylococcus aureus infection in mouse after i.v. administration (Vancomycin, ED50= 1.0 mg/kg ); format: functional; conditions: route intravenous
Staphylococcus aureus [2] = assay: Antibacterial activity against Staphylococcus aureus; Range is 0.5-1; format: functional
Enterococcus faecalis [3] = assay: Antibacterial activity against Enterococcus faecalis; format: functional
Staphylococcus aureus [4] = assay: Antibacterial activity against Staphylococcus aureus; format: functional
Enterococcus faecalis [5] = assay: Antibacterial activity against Enterococcus faecalis; Range is 4-8; format: functional
Staphylococcus aureus [6] = assay: Antibacterial activity against Staphylococcus aureus; Range is 1-2; format: functional
Enterococcus faecalis [7] = assay: Antibacterial activity against Enterococcus faecalis; Range is 16-32; format: functional
Enterococcus faecalis [8] = assay: Antibacterial activity against Enterococcus faecalis; Range is 64->64; format: functional
Staphylococcus aureus [9] = assay: Antibacterial activity against Staphylococcus aureus; Range is 4-8; format: functional
Enterococcus faecalis [10] = assay: Antibacterial activity against Enterococcus faecalis; Range is 4-16; format: functional
Staphylococcus aureus [11] = assay: Antibacterial activity against Staphylococcus aureus; Range is 0.5-2; format: functional
Enterococcus faecalis [12] = assay: Antibacterial activity against Enterococcus faecalis; Range is 1-4; format: functional

Row | SMILES | MIC (Escherichia coli) | ED50 (Mus musculus) | MIC (Enterococcus faecalis [3]) | MIC (Staphylococcus aureus [4]) | other results
1 | C[C@@H](c1ccccc1)[C@@H]1NC(=O)CNC(=O)[C@H](CO)NC(=O)[C@@H]([C@@H](O)[C@@H]2CNC(N)N2[C@H]2O[C@H](CO)[C@@H](O)[C@H](O)[C@@H]2O)NC(=O)[C@H]([C@@H](O)[C@@H]2CNC(N)N2)NC(=O)[C@@H](Cc2ccc(O[C@H]3O[C@H](CO)[C@@H](O[C@H]4O[C@H](COC(=O)C(c5ccccc5)c5ccccc5)[C@@H](O)[C@H](O)[C@@H]4O)[C@H](O)[C@@H]3O)cc2)NC1=O (stereo partly drawn) | No activity | 0.29 mg/kg | – | – | MIC (Enterococcus faecalis [1]): 2 µg/mL (≈ 1.34 µM); MIC (Staphylococcus aureus [2]): 1 µg/mL (≈ 0.67 µM)
2 | C[C@@H](c1ccccc1)[C@@H]1NC(=O)CNC(=O)[C@H](COC(=O)CCC2CCCC2)NC(=O)[C@@H]([C@@H](O)[C@@H]2CNC(N)N2[C@H]2O[C@H](CO)[C@@H](O)[C@H](O)[C@@H]2O)NC(=O)[C@H]([C@@H](O)[C@@H]2CNC(N)N2)NC(=O)[C@@H](Cc2ccc(O[C@H]3O[C@H](CO)[C@@H](O[C@H]4O[C@H](CO)[C@@H](O)[C@H](O)[C@@H]4O)[C@H](O)[C@@H]3O)cc2)NC1=O (stereo partly drawn) | No activity | – | > 64 µg/mL | > 64 µg/mL | –
3 | CCCCCC(=O)OC[C@H]1O[C@H](O[C@H]2[C@H](O)[C@H](O)[C@@H](Oc3ccc(C[C@H]4NC(=O)[C@H]([C@@H](C)c5ccccc5)NC(=O)CNC(=O)[C@H](CO)NC(=O)[C@@H]([C@@H](O)[C@@H]5CNC(N)N5[C@H]5O[C@H](CO)[C@@H](O)[C@H](O)[C@@H]5O)NC(=O)[C@H]([C@@H](O)[C@@H]5CNC(N)N5)NC4=O)cc3)O[C@@H]2CO)[C@@H](O)[C@@H](O)[C@@H]1O (stereo partly drawn) | No activity | 4 mg/kg | – | – | MIC (Enterococcus faecalis [5]): 8 µg/mL (≈ 5.72 µM); MIC (Staphylococcus aureus [6]): 2 µg/mL (≈ 1.43 µM)
4 | C[C@@H](c1ccccc1)[C@@H]1NC(=O)CNC(=O)[C@H](CO)NC(=O)[C@@H]([C@@H](O)[C@@H]2CNC(N)N2[C@H]2O[C@H](CO)[C@@H](O)[C@H](O)[C@@H]2O)NC(=O)[C@H]([C@@H](O)[C@@H]2CNC(N)N2)NC(=O)[C@@H](Cc2ccc(O[C@H]3O[C@H](CO)[C@@H](O[C@H]4O[C@H](CO)[C@@H](O)[C@H](O)[C@@H]4O)[C@H](O)[C@@H]3O)cc2)NC1=O (stereo partly drawn) | No activity | – | > 64 µg/mL | > 64 µg/mL | –
5 | C[C@@H](c1ccccc1)[C@@H]1NC(=O)CNC(=O)[C@H](CO)NC(=O)[C@@H]([C@@H](O)[C@@H]2CNC(N)N2[C@H]2O[C@H](CO)[C@@H](O)[C@H](O)[C@@H]2O)NC(=O)[C@H]([C@@H](O)[C@@H]2CNC(N)N2)NC(=O)[C@@H](Cc2ccc(O[C@H]3O[C@H](COC(=O)CCC4CCCC4)[C@@H](O[C@H]4O[C@H](CO)[C@@H](O)[C@H](O)[C@@H]4O)[C@H](O)[C@@H]3O)cc2)NC1=O (stereo partly drawn) | No activity | – | 8 µg/mL (≈ 5.62 µM) | 2 µg/mL (≈ 1.4 µM) | –
6 | C[C@@H](c1ccccc1)[C@@H]1NC(=O)CNC(=O)[C@H](CO)NC(=O)[C@@H]([C@@H](O)[C@@H]2CNC(N)N2[C@H]2O[C@H](CO)[C@@H](O)[C@H](O)[C@@H]2O)NC(=O)[C@H]([C@@H](O)[C@@H]2CNC(N)N2)NC(=O)[C@@H](Cc2ccc(O[C@H]3O[C@H](COC(=O)C(c4ccccc4)c4ccccc4)[C@@H](O[C@H]4O[C@H](CO)[C@@H](O)[C@H](O)[C@@H]4O)[C@H](O)[C@@H]3O)cc2)NC1=O (stereo partly drawn) | No activity | – | – | – | MIC (Enterococcus faecalis [5]): 8 µg/mL (≈ 5.36 µM); MIC (Staphylococcus aureus [6]): 2 µg/mL (≈ 1.34 µM)
7 | CC(C)CC(=O)O[C@H]1[C@H](O)[C@H](O)[C@@H](O[C@H]2[C@H](O)[C@H](O)[C@@H](Oc3ccc(C[C@H]4NC(=O)[C@H]([C@@H](C)c5ccccc5)NC(=O)CNC(=O)[C@H](CO)NC(=O)[C@@H]([C@@H](O)[C@@H]5CNC(N)N5[C@H]5O[C@H](CO)[C@@H](O)[C@H](O)[C@@H]5O)NC(=O)[C@H]([C@@H](O)[C@@H]5CNC(N)N5)NC4=O)cc3)O[C@@H]2CO)O[C@@H]1CO (stereo partly drawn) | No activity | 0.6 mg/kg | – | 4 µg/mL (≈ 2.89 µM) | MIC (Enterococcus faecalis [7]): 32 µg/mL (≈ 23.1 µM)
8 | C[C@@H](c1ccccc1)[C@@H]1NC(=O)CNC(=O)[C@H](CO)NC(=O)[C@@H]([C@@H](O)[C@@H]2CNC(N)N2[C@H]2O[C@H](CO)[C@@H](O)[C@H](O)[C@@H]2O)NC(=O)[C@H]([C@@H](O)[C@@H]2CNC(N)N2)NC(=O)[C@@H](Cc2ccc(O[C@H]3O[C@H](CO)[C@@H](O[C@H]4O[C@H](COC(=O)CCC5CCCC5)[C@@H](O)[C@H](O)[C@@H]4O)[C@H](O)[C@@H]3O)cc2)NC1=O (stereo partly drawn) | No activity | – | 4 µg/mL (≈ 2.81 µM) | 1 µg/mL (≈ 0.702 µM) | –
9 | CC(C)CC(=O)O[C@@H]1[C@@H](O[C@H]2[C@H](O)[C@H](O)[C@@H](Oc3ccc(C[C@H]4NC(=O)[C@H]([C@@H](C)c5ccccc5)NC(=O)CNC(=O)[C@H](CO)NC(=O)[C@@H]([C@@H](O)[C@@H]5CNC(N)N5[C@H]5O[C@H](CO)[C@@H](O)[C@H](O)[C@@H]5O)NC(=O)[C@H]([C@@H](O)[C@@H]5CNC(N)N5)NC4=O)cc3)O[C@@H]2CO)O[C@H](CO)[C@@H](O)[C@@H]1O (stereo partly drawn) | No activity | 3.5 mg/kg | – | 8 µg/mL (≈ 5.78 µM) | MIC (Enterococcus faecalis [8]): 64 µg/mL (≈ 46.3 µM)
10 | CCCCCC(=O)OC[C@H]1O[C@H](Oc2ccc(C[C@H]3NC(=O)[C@H]([C@@H](C)c4ccccc4)NC(=O)CNC(=O)[C@H](CO)NC(=O)[C@@H]([C@@H](O)[C@@H]4CNC(N)N4[C@H]4O[C@H](CO)[C@@H](O)[C@H](O)[C@@H]4O)NC(=O)[C@H]([C@@H](O)[C@@H]4CNC(N)N4)NC3=O)cc2)[C@@H](O)[C@@H](O)[C@@H]1O[C@H]1O[C@H](CO)[C@@H](O)[C@H](O)[C@@H]1O (stereo partly drawn) | No activity | – | – | – | MIC (Enterococcus faecalis [7]): 32 µg/mL (≈ 22.9 µM); MIC (Staphylococcus aureus [9]): 8 µg/mL (≈ 5.72 µM)
11 | C[C@@H](c1ccccc1)[C@@H]1NC(=O)CNC(=O)[C@H](CO)NC(=O)[C@@H]([C@@H](O)[C@@H]2CNC(N)N2[C@H]2O[C@H](COC(=O)C(c3ccccc3)c3ccccc3)[C@@H](O)[C@H](O)[C@@H]2O)NC(=O)[C@H]([C@@H](O)[C@@H]2CNC(N)N2)NC(=O)[C@@H](Cc2ccc(O[C@H]3O[C@H](CO)[C@@H](O[C@H]4O[C@H](CO)[C@@H](O)[C@H](O)[C@@H]4O)[C@H](O)[C@@H]3O)cc2)NC1=O (stereo partly drawn) | No activity | – | > 64 µg/mL | > 64 µg/mL | –
12 | CCCCCCC(=O)OC[C@H]1O[C@H](Oc2ccc(C[C@H]3NC(=O)[C@H]([C@@H](C)c4ccccc4)NC(=O)CNC(=O)[C@H](CO)NC(=O)[C@@H]([C@@H](O)[C@@H]4CNC(N)N4[C@H]4O[C@H](CO)[C@@H](O)[C@H](O)[C@@H]4O)NC(=O)[C@H]([C@@H](O)[C@@H]4CNC(N)N4)NC3=O)cc2)[C@@H](O)[C@@H](O)[C@@H]1O[C@H]1O[C@H](CO)[C@@H](O)[C@H](O)[C@@H]1O (stereo partly drawn) | No activity | – | – | – | MIC (Enterococcus faecalis [10]): 16 µg/mL (≈ 11.3 µM); MIC (Staphylococcus aureus [11]): 2 µg/mL (≈ 1.42 µM)
13 | C[C@@H](c1ccccc1)[C@@H]1NC(=O)CNC(=O)[C@H](CO)NC(=O)[C@@H]([C@@H](O)[C@@H]2CNC(N)N2[C@H]2O[C@H](COC(=O)CCC3CCCC3)[C@@H](O)[C@H](O)[C@@H]2O)NC(=O)[C@H]([C@@H](O)[C@@H]2CNC(N)N2)NC(=O)[C@@H](Cc2ccc(O[C@H]3O[C@H](CO)[C@@H](O[C@H]4O[C@H](CO)[C@@H](O)[C@H](O)[C@@H]4O)[C@H](O)[C@@H]3O)cc2)NC1=O (stereo partly drawn) | No activity | – | > 64 µg/mL | > 64 µg/mL | –
14 | CCCCCCC(=O)OC[C@H]1O[C@H](N2C(N)NC[C@H]2[C@H](O)[C@H]2NC(=O)[C@H]([C@@H](O)[C@@H]3CNC(N)N3)NC(=O)[C@@H](Cc3ccc(O[C@H]4O[C@H](CO)[C@@H](O[C@H]5O[C@H](CO)[C@@H](O)[C@H](O)[C@@H]5O)[C@H](O)[C@@H]4O)cc3)NC(=O)[C@H]([C@@H](C)c3ccccc3)NC(=O)CNC(=O)[C@H](CO)NC2=O)[C@@H](O)[C@@H](O)[C@@H]1O (stereo partly drawn) | No activity | – | > 64 µg/mL | > 64 µg/mL | –
15 | CCCC(CCC)C(=O)OC[C@H]1O[C@H](O[C@H]2[C@H](O)[C@H](O)[C@@H](Oc3ccc(C[C@H]4NC(=O)[C@H]([C@@H](C)c5ccccc5)NC(=O)CNC(=O)[C@H](CO)NC(=O)[C@@H]([C@@H](O)[C@@H]5CNC(N)N5[C@H]5O[C@H](CO)[C@@H](O)[C@H](O)[C@@H]5O)NC(=O)[C@H]([C@@H](O)[C@@H]5CNC(N)N5)NC4=O)cc3)O[C@@H]2CO)[C@@H](O)[C@@H](O)[C@@H]1O (stereo partly drawn) | No activity | 0.52 mg/kg | 4 µg/mL (≈ 2.81 µM) | – | MIC (Staphylococcus aureus [6]): 2 µg/mL (≈ 1.4 µM)
16 | CC(C)CC(=O)O[C@@H]1[C@H](O)[C@@H](O[C@H]2[C@H](O)[C@H](O)[C@@H](Oc3ccc(C[C@H]4NC(=O)[C@H]([C@@H](C)c5ccccc5)NC(=O)CNC(=O)[C@H](CO)NC(=O)[C@@H]([C@@H](O)[C@@H]5CNC(N)N5[C@H]5O[C@H](CO)[C@@H](O)[C@H](O)[C@@H]5O)NC(=O)[C@H]([C@@H](O)[C@@H]5CNC(N)N5)NC4=O)cc3)O[C@@H]2CO)O[C@H](CO)[C@H]1O (stereo partly drawn) | No activity | 2.6 mg/kg | 64 µg/mL (≈ 46.3 µM) | – | MIC (Staphylococcus aureus [9]): 8 µg/mL (≈ 5.78 µM)
17 | CCCCCCC(=O)OC[C@H]1O[C@H](O[C@H]2[C@H](O)[C@H](O)[C@@H](Oc3ccc(C[C@H]4NC(=O)[C@H]([C@@H](C)c5ccccc5)NC(=O)CNC(=O)[C@H](CO)NC(=O)[C@@H]([C@@H](O)[C@@H]5CNC(N)N5[C@H]5O[C@H](CO)[C@@H](O)[C@H](O)[C@@H]5O)NC(=O)[C@H]([C@@H](O)[C@@H]5CNC(N)N5)NC4=O)cc3)O[C@@H]2CO)[C@@H](O)[C@@H](O)[C@@H]1O (stereo partly drawn) | No activity | 4 mg/kg | – | – | MIC (Enterococcus faecalis [12]): 4 µg/mL (≈ 2.83 µM); MIC (Staphylococcus aureus [2]): 1 µg/mL (≈ 0.708 µM)
